Activity calls are given as the source filed them. No cut-off for these calls is given here.
Tests used:
Keap1/Nrf2 [1] = molecular target: T1, Keap1/Nrf2 (Homo sapiens, UniProt Q14145); experiment: Inhibition of recombinant human Keap1 Kelch domain (321 to 609 residues) expressed in Escherichia coli BL21 (DE3)pLysS cells/Nrf2 (unknown origin) protein-protein interaction using FITC-LDEETGEFL-NH2 as fluorescent substrate preincubated with compound for 30 mins followed by substrate addition and measured after 1 hr by fluorescence polarization assay relative to control
[2] = Lipophilicity, logD of the compound at pH 6.5; assay type: physicochemical; conditions: buffer
[3] = Lipophilicity, logD of the compound at pH 7.4; assay type: physicochemical; conditions: buffer
Keap1/Nrf2 [4] = molecular target: T1, Keap1/Nrf2; experiment: Inhibition of His-tagged Keap1 kelch domain/Nrf2 (unknown origin) protein-protein interaction using FITC-LDEETGEFL-NH2 peptide as substrate preincubated for 30 mins followed by substrate addition and measured after 1 hr by TR-FRET assay
NCM460D [5] = experiment: Upregulation of NQO1 mRNA expression in human NCM460D cells at 1 to 100 uM measured after 24 hrs by qRT-PCR analysis; assay type: functional, cell-based; conditions: dose 1-100 µM
[6] = Upregulation of NQO1 mRNA expression in human NCM460D cells assessed as fold change in gene expression at 100 uM measured after 24 hrs by qRT-PCR analysis relative to control; assay type: functional
NCM460D [7] = experiment: Upregulation of HMOX1 mRNA expression in human NCM460D cells at 1 to 100 uM measured after 24 hrs by qRT-PCR analysis; assay type: functional, cell-based; conditions: dose 1-100 µM
NCM460D [8] = experiment: Upregulation of GSTM3 mRNA expression in human NCM460D cells at 1 to 100 uM measured after 24 hrs by qRT-PCR analysis; assay type: functional, cell-based; conditions: dose 1-100 µM

T1 sequence (Q16236 whole entry, the tested form may be a part): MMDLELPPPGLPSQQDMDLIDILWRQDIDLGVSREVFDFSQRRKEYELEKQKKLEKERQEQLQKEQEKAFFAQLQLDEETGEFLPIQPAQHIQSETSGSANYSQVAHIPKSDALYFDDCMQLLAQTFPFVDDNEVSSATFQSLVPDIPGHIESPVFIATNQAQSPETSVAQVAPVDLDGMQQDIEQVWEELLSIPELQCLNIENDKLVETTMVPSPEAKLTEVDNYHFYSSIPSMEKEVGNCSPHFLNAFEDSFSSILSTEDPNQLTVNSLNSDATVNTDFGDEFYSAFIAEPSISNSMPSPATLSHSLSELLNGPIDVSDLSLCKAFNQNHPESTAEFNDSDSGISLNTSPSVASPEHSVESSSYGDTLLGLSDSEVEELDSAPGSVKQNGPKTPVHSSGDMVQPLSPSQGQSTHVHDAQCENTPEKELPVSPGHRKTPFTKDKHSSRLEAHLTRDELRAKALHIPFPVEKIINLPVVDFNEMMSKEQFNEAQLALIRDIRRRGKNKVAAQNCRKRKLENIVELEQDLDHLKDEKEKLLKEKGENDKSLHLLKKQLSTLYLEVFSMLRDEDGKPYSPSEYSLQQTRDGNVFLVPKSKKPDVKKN
T1 sequence (Q14145 whole entry, the tested form may be a part): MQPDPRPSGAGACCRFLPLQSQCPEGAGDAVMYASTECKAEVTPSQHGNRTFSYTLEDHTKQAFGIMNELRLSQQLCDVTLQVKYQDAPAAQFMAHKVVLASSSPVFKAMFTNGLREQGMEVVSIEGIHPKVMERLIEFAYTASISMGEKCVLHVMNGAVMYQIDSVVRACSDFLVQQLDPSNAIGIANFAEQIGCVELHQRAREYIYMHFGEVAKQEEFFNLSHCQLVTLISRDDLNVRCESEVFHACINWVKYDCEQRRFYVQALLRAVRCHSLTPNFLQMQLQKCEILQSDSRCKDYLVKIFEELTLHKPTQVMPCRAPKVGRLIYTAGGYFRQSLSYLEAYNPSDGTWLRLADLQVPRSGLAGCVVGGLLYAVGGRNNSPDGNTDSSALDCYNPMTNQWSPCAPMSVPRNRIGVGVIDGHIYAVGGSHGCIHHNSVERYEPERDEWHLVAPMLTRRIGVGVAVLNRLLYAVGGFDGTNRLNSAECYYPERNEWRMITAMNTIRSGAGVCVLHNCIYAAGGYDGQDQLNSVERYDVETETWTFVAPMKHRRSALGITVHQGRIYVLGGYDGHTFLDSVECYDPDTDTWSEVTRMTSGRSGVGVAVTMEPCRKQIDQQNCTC

SMILES | IC50 (Keap1/Nrf2 [1]) | also measured
COc1ccc(S(=O)(=O)N(CC(=O)O)c2ccc(N(CC(=O)O)S(=O)(=O)c3ccc(OC)cc3)c3ccccc23)cc1 |  | logD [2]: -1.38; logD [3]: -2.93
O=C(O)CN(c1ccc(N(CC(=O)O)S(=O)(=O)c2ccc(-c3ccccc3)cc2)c(OCc2ccccc2)c1)S(=O)(=O)c1ccc(-c2ccccc2)cc1 | 750 nM | 
Cc1ccc(S(=O)(=O)N(c2ccc(N([C@@H](C)C(=O)O)S(=O)(=O)c3ccc(C)cc3)c(OCc3ccc(F)cc3)c2)[C@@H](C)C(=O)O)cc1 | 1270 nM | 
Cc1ccc(S(=O)(=O)N(CC(=O)O)c2cc(OCc3ccc(F)cc3)c(N(CC(=O)O)S(=O)(=O)c3ccc(C)cc3)c3ccccc23)cc1 | 65 nM | IC50 (Keap1/Nrf2 [4]): 14.2 nM; Activity (NCM460D [5]): Active; logD [2]: 1.94; logD ([3]; read-out: logD): 0.33; fold change (FC) [6]: 15; Activity (NCM460D [7]): Active; Activity (NCM460D [8]): Active
O=C(O)CN(c1ccc(N(CC(=O)O)S(=O)(=O)c2ccc(C(F)(F)F)cc2)c(OCc2ccccc2)c1)S(=O)(=O)c1ccc(C(F)(F)F)cc1 | 1760 nM | 
Cc1ccc(S(=O)(=O)N(CC(=O)O)c2ccc(N(CC(=O)O)S(=O)(=O)c3ccc(C)cc3)c(OCc3ccc(-c4ccccc4)cc3)c2)cc1 | 440 nM | 
O=C(O)CN(c1ccc(N(CC(=O)O)S(=O)(=O)c2ccc(Br)cc2)c(OCc2ccccc2)c1)S(=O)(=O)c1ccc(Br)cc1 | 590 nM | 
O=C(O)CN(c1ccc(N(CC(=O)O)S(=O)(=O)c2ccc(F)cc2)c(OCc2ccccc2)c1)S(=O)(=O)c1ccc(F)cc1 | 2410 nM | 
Cc1cccc(S(=O)(=O)N(CC(=O)O)c2ccc(N(CC(=O)O)S(=O)(=O)c3cccc(C)c3)c(OCc3ccccc3)c2)c1 | 1000 nM | 
COc1ccc(S(=O)(=O)N(CC(=O)O)c2ccc(N(CC(=O)O)S(=O)(=O)c3ccc(OC)cc3)c(-c3ccccc3)c2)cc1 | 3470 nM | 
Cc1cc(C)c(S(=O)(=O)N(CC(=O)O)c2ccc(N(CC(=O)O)S(=O)(=O)c3c(C)cc(C)cc3C)c(OCc3ccc(F)cc3)c2)c(C)c1 | 3730 nM | 
Cc1ccc(S(=O)(=O)N(Cc2nnn[nH]2)c2ccc(N(Cc3nnn[nH]3)S(=O)(=O)c3ccc(C)cc3)c(OCc3ccc(F)cc3)c2)cc1 | 3920 nM | 
Cc1ccc(S(=O)(=O)N(CC(=O)O)c2ccc(N(CC(=O)O)S(=O)(=O)c3ccc(C)cc3)c(OCc3ccc(F)cc3)c2)cc1 | 450 nM | 

The next lines start with results.

IC50 (Keap1/Nrf2 [1]) | SMILES | also measured
390 nM | COc1ccc(S(=O)(=O)N(CC(=O)O)c2ccc(N(CC(=O)O)S(=O)(=O)c3ccc(OC)cc3)c(OCc3ccc(-c4ccccc4)cc3)c2)cc1 | 
790 nM | COc1ccc(S(=O)(=O)N(CC(=O)O)c2ccc(N(CC(=O)O)S(=O)(=O)c3ccc(OC)cc3)c(OCc3cccc4ccccc34)c2)cc1 | 
890 nM | COc1ccc(S(=O)(=O)N(CC(=O)O)c2ccc(N(CC(=O)O)S(=O)(=O)c3ccc(OC)cc3)c(Oc3ccc4ccccc4c3)c2)cc1 | 
1020 nM | COc1ccc(S(=O)(=O)N(CC(=O)O)c2ccc(N(CC(=O)O)S(=O)(=O)c3ccc(OC)cc3)c(OCCc3ccccc3)c2)cc1 | 
450 nM | Cc1ccc(S(=O)(=O)N(CC(=O)O)c2ccc(N(CC(=O)O)S(=O)(=O)c3ccc(C)cc3)c(OCc3ccccc3)c2)cc1 | 
830 nM | COc1ccc(S(=O)(=O)N(CC(=O)O)c2ccc(N(CC(=O)O)S(=O)(=O)c3ccc(OC)cc3)c(OCc3ccc(Oc4ccccc4)cc3)c2)cc1 | 
6170 nM | COc1ccc(S(=O)(=O)N(CC(=O)O)c2ccc(N(CC(=O)O)S(=O)(=O)c3ccc(OC)cc3)c(N(C)Cc3ccccc3)c2)cc1 | 
770 nM | COc1ccc(COc2cc(N(CC(=O)O)S(=O)(=O)c3ccc(OC)cc3)ccc2N(CC(=O)O)S(=O)(=O)c2ccc(OC)cc2)cc1 | 
1190 nM | COc1ccc(S(=O)(=O)N(CC(=O)O)c2ccc(N(CC(=O)O)S(=O)(=O)c3ccc(OC)cc3)c(Oc3ccc(-c4ccccc4)cc3)c2)cc1 | 
480 nM | COc1ccc(S(=O)(=O)N(CC(=O)O)c2ccc(N(CC(=O)O)S(=O)(=O)c3ccc(OC)cc3)c(OCc3ccc4ccccc4c3)c2)cc1 | 
950 nM | COc1ccc(S(=O)(=O)N(CC(=O)O)c2ccc(N(CC(=O)O)S(=O)(=O)c3ccc(OC)cc3)c(OCCCc3ccccc3)c2)cc1 | 
2620 nM | COc1ccc(S(=O)(=O)N(CC(=O)O)c2ccc(N(CC(=O)O)S(=O)(=O)c3ccc(OC)cc3)c(COc3ccccc3)c2)cc1 | 
380 nM | Cc1ccc(S(=O)(=O)N(CC(=O)O)c2ccc(N(CC(=O)O)S(=O)(=O)c3ccc(C)cc3)c(OCc3ccc4ccccc4c3)c2)cc1 | 
910 nM | COc1ccc(S(=O)(=O)N(CC(=O)O)c2ccc(N(CC(=O)O)S(=O)(=O)c3ccc(OC)cc3)c(OCc3ccc(F)cc3)c2)cc1 | 
620 nM | COc1ccc(S(=O)(=O)N(CC(=O)O)c2ccc(N(CC(=O)O)S(=O)(=O)c3ccc(OC)cc3)c(OCc3ccc(C)cc3)c2)cc1 | 
760 nM | COc1ccc(S(=O)(=O)N(CC(=O)O)c2ccc(N(CC(=O)O)S(=O)(=O)c3ccc(OC)cc3)c(OCc3cccnc3)c2)cc1 | 
